Measurements: patent US20200123495A1, “COMPOSITION AND METHOD FOR CONTROLLING INSECTS AND MICR[…] PSEUDOMONAS […]” (Academia Sinica, priority 2014, published 2020)

Experiments:
[1] = test system: Xanthomonas oryzae pv. oryzae (Xoo)
[2] = CAS plate assay (removal of iron from the CAS dye); conditions: 1.2 and 1.5 mg pyoverdine on CAS agar plates
Protocol: Chrome azurol S (CAS) is a universal method that detects the mobilization of iron, which assays siderphores production. To prepare 100 ml CAS dye, 60.5 mg CAS powder (Sigma) was dissolved in 50 ml distilled water and mixed with 10 ml of 1 mM iron solution (anhydration FeCl3, Alfa Aesar). Then, 40 ml of 72.9 mg HDTMA (Sigma) was added slowly to 60 ml CAS solution with FeCl3 and autoclaved to sterilize. After CAS cool down can be hand held, one-tenth of CAS solution mixed with LP agar medium and immediately poured into plates.
Different concentration of purified pyoverdine was injected into the hole (5 mm) of CAS plates. Plates were incubated at 28° C. for 6 h or until yellow halo appearance.

Drosophila melanogaster = conditions: previous study, Liu et al. 2010; cited from earlier work

Row | Molecule | IC50 toward Xoo (inhibition of cell growth) [1] | LD50 against Xoo (lethal dose) [1] | CAS reaction rate [2] | mortality in Drosophila larvae (Drosophila melanogaster)
1 | C[C@@H](O)[C@@H](NC(=O)[C@@H](NC(=O)[C@H](CCCCN)NC(=O)[C@@H](CO)NC(=O)C1CCN=C2C(NC(=O)CCC(=O)O)=Cc3cc(O)c(O)cc3N21)C(O)c1c[nH]cn1)C(=O)N[C@@H](CO)C(=O)N[C@H]1CCCN(O)C1=O (stereo partly drawn) [pyoverdine, Q-DSer-Lys-OHHis-aDThr-Ser-cOHOrn] | about 2.035 mg/ml | about 1.98 mg/ml | rapidly detected | 
2 | recombinant TccC: TccC gene from P. taiwanensis overexpressed in E. coli (SEQ ID NO:2) |  |  |  | increase the mortality
